Experimental data taken from patent publication US12054447B2, “PCNA inhibitors” (City of Hope, priority 2015, dated 2024).
pIC50: −log10 of the molar value.

Tests used:
SK-N-AS = test: Cell growth, CellTitor-Glo assay, 72 h; format: cell-based; conditions: Homo sapiens
Protocol: (§1) The human NB cell lines, SK-N-DZ, SK-N-BE(2)c, SK-N-AS, and LAN-5 obtained from the American Type Culture Collection (Rockville, MD), were cultured in DMEM with 10% fetal bovine serum (FBS), 100 units/ml penicillin, and 100 μg/ml streptomycin in the presence of 5% CO2 at 37° C. Human PBMCs from a healthy donor were purchased from Sanguine BioSciences (Valencia, CA) and grown in RPMI1640 with 10% FBS, 100 units/ml penicillin, 100 μg/ml streptomycin, and 10 ng/ml IL-2 in the presence of 5% CO2 at 37° C. Human embryonic progenitor cell line 7SM0032 was acquired from Millipore (Billerica, MA) and grown in the hEPM-1 Media Kit purchased from the same company. The plasmid pCBASce expresses the rare cutting I-SceI meganuclease. The U20S-derived cell lines, DR-GFP and EJ5-GFP, each contain a stably transfected reporter gene for DSB repair mediated by HR and end joining (EJ), respectively. These cell lines were cultured in DMEM medium with 10% FBS at 37° C. in the presence of 5% CO2.
(§2) To measure the effect of the compounds on cell growth, cells were seeded at 3×10^4/ml into a 96-well plate. Once attached, cells were treated with various concentrations of AOH1160 for 72 h. Cell growth was measured by the CellTitor-Glo assay (Promega, Madison, WI) according to the manufacturer's instructions. To measure apoptosis, cells were seeded at 1×10^5/ml onto a chamber slide. Once attached, cells were treated with the 500 nM AOH1160 for 24 h. Cells were fixed and analyzed by a TUNEL assay using the TMR red in situ cell death detection kit (Roche Diagnostics, Indianapolis, IN).

SK-N-BE(2)c = test: Cell growth, CellTitor-Glo assay, 72 h; format: cell-based; conditions: Homo sapiens
Protocol: as §1, §2

SK-N-DZ = test: Cell growth, CellTitor-Glo assay, 72 h; format: cell-based; conditions: Homo sapiens
Protocol: as §1, §2

PBMC = test: Cell growth, CellTitor-Glo assay, 72 h; format: cell-based, human; conditions: Homo sapiens; PBMC (non-malignant)
Protocol: as §1, §2

786-0 = test: NCI-60 panel test; format: cell-based; conditions: Homo sapiens; 786-0, NCI-60 5-dose study
Protocol: (§3) FIG. 7. NCI-60 panel test. The effect of AOH1160 on growth of the NCI-60 panel, which consists of 60 cancer cell lines representing 9 major cancer types, was tested in a 5-dose study. Shown are the Log IC50 values determined for each cell line. […] This study was performed by the National Institute of Cancer.
(§4) As observed in FIG. 7, the effect of AOH1160 on growth of the NCI-60 panel, which consists of 60 cancer cell lines representing 9 major cancer types, was tested in a 5-dose study. Shown are the Log IC50 values determined for each cell line.

A498 = test: NCI-60 panel test; format: cell-based; conditions: Homo sapiens; A498, NCI-60 5-dose study
Protocol: as §3, §4

BT-549 = test: NCI-60 panel test; format: cell-based; conditions: Homo sapiens; BT-549, NCI-60 5-dose study
Protocol: as §3, §4

CCRF-CEM = test: NCI-60 panel test; format: cell-based; conditions: Homo sapiens, NCI-60 5-dose study
Protocol: as §3, §4

HOP-62 = test: NCI-60 panel test; format: cell-based; conditions: Homo sapiens; HOP-62, NCI-60 5-dose study
Protocol: as §3, §4

HS 578T = test: NCI-60 panel test; format: cell-based; conditions: Homo sapiens, NCI-60 5-dose study
Protocol: as §3, §4

HT29 = test: NCI-60 panel test; format: cell-based; conditions: Homo sapiens, HT-29; HT29, NCI-60 5-dose study
Protocol: as §3, §4

K-562 = test: NCI-60 panel test; format: cell-based; conditions: Homo sapiens, K562; K-562, NCI-60 5-dose study
Protocol: as §3, §4

KM12 = test: NCI-60 panel test; format: cell-based; conditions: Homo sapiens; KM12, NCI-60 5-dose study
Protocol: as §3, §4

LOX IMVI = test: NCI-60 panel test; format: cell-based; conditions: Homo sapiens, NCI-60 5-dose study
Protocol: as §3, §4

M14 = test: NCI-60 panel test; format: cell-based; conditions: Homo sapiens; M14, NCI-60 5-dose study
Protocol: as §3, §4

NCI-H226 = test: NCI-60 panel test; format: cell-based; conditions: Homo sapiens; NCI-H226, NCI-60 5-dose study
Protocol: as §3, §4

NCI-H23 = test: NCI-60 panel test; format: cell-based; conditions: Homo sapiens; NCI-H23, NCI-60 5-dose study
Protocol: as §3, §4

NCI-H460 = test: NCI-60 panel test; format: cell-based; conditions: Homo sapiens; NCI-H460, NCI-60 5-dose study
Protocol: as §3, §4

NCI-H522 = test: NCI-60 panel test; format: cell-based; conditions: Homo sapiens; NCI-H522, NCI-60 5-dose study
Protocol: as §3, §4

NCI/ADR-RES = test: NCI-60 panel test; format: cell-based; conditions: Homo sapiens, NCI-60 5-dose study
Protocol: as §3, §4

OVCAR-3 = test: NCI-60 panel test; format: cell-based; conditions: Homo sapiens; OVCAR-3, NCI-60 5-dose study
Protocol: as §3, §4

SF-539 = test: NCI-60 panel test; format: cell-based; conditions: Homo sapiens; SF-539, NCI-60 5-dose study
Protocol: as §3, §4

SK-MEL-28 = test: NCI-60 panel test; format: cell-based; conditions: Homo sapiens; SK-MEL-28, NCI-60 5-dose study
Protocol: as §3, §4

SK-MEL-5 = test: NCI-60 panel test; format: cell-based; conditions: Homo sapiens; SK-MEL-5, NCI-60 5-dose study
Protocol: as §3, §4

SNB-19 = test: NCI-60 panel test; format: cell-based; conditions: Homo sapiens; SNB-19, NCI-60 5-dose study
Protocol: as §3, §4

SNB-75 = test: NCI-60 panel test; format: cell-based; conditions: Homo sapiens; SNB-75, NCI-60 5-dose study
Protocol: as §3, §4

SR = test: NCI-60 panel test; format: cell-based; conditions: Homo sapiens, NCI-60 5-dose study
Protocol: as §3, §4

U251 = test: NCI-60 panel test; format: cell-based; conditions: Homo sapiens, U-251; U251, NCI-60 5-dose study
Protocol: as §3, §4

UO-31 = test: NCI-60 panel test; format: cell-based; conditions: Homo sapiens; UO-31, NCI-60 5-dose study
Protocol: as §3, §4

Row | Compound | pIC50 (SK-N-AS) | pIC50 (SK-N-BE(2)c) | pIC50 (SK-N-DZ) | pIC50 (PBMC) | GI50 (786-0) [nM] | GI50 (A498) [nM] | GI50 (BT-549) [nM] | GI50 (CCRF-CEM) [nM] | GI50 (HOP-62) [nM] | GI50 (HS 578T) [nM] | GI50 (HT29) [nM] | GI50 (K-562) [nM] | GI50 (KM12) [nM] | GI50 (LOX IMVI) [nM] | GI50 (M14) [nM] | GI50 (NCI-H226) [nM] | GI50 (NCI-H23) [nM] | GI50 (NCI-H460) [nM] | GI50 (NCI-H522) [nM] | GI50 (NCI/ADR-RES) [nM] | other results
1 | O=C(CNC(=O)c1cccc2ccccc12)Nc1ccccc1Oc1ccccc1 [AOH1160] | 6.97 | 6.49 | 6.62 | < 4.70 | 447 | 257 | 407 | 347 | 355 | 363 | 288 | 70.8 | 288 | 309 | 275 | 2190 | 661 | 331 | 151 | 240 | GI50 (OVCAR-3): 191 nM; GI50 (SF-539): 240 nM; GI50 (SK-MEL-28): 813 nM; GI50 (SK-MEL-5): 263 nM; GI50 (SNB-19): 457 nM; GI50 (SNB-75): 229 nM; GI50 (SR): 83.2 nM; GI50 (U251): 331 nM; GI50 (UO-31): 646 nM
2 | O=C(CNC(=O)c1cccc2ccccc12)Nc1ccccc1Oc1cccc(O)c1 [PCNA2] | 6.72 | 6.31 | 6.27 | < 4.70 | 10000 | 5130 | 25100 | 4170 | 8130 | 5750 | 21400 | 1050 | 2190 | 15100 | 1550 | 25100 | 15800 | 5750 | 1620 | 7940 | GI50 (OVCAR-3): 1510 nM; GI50 (SF-539): 4070 nM; GI50 (SK-MEL-28): 1860 nM; GI50 (SK-MEL-5): 25100 nM; GI50 (SNB-19): 8710 nM; GI50 (SNB-75): 3310 nM; GI50 (SR): 1050 nM; GI50 (U251): 8320 nM; GI50 (UO-31): 16600 nM
3 | COc1cccc(Oc2ccccc2NC(=O)CNC(=O)c2cccc3ccccc23)c1 [PCNA7/ AOH1996] | 6.90 | 6.63 | 6.54 | < 4.70 | 182 | 115 | 295 | 363 | 302 | 380 | 110 | 129 | 191 | 269 | 158 | 2510 | 741 | 295 | 178 | 240 | GI50 (OVCAR-3): 100 nM; GI50 (SF-539): 224 nM; GI50 (SK-MEL-28): 4370 nM; GI50 (SK-MEL-5): 219 nM; GI50 (SNB-19): 617 nM; GI50 (SNB-75): 129 nM; GI50 (SR): 115 nM; GI50 (U251): 240 nM; GI50 (UO-31): 1820 nM
4 | O=C(CNC(=O)c1cccc2ccccc12)Nc1ccccc1Oc1ccc(O)cc1 [PCNA1] | 6.80 | 6.31 | 6.33 | < 4.70 | 1050 | 1020 | 1620 | 933 | 1350 | 1350 | 1000 | 501 | 912 | 1740 | 692 | 4790 | 2140 | 977 | 851 | 1200 | GI50 (OVCAR-3): 741 nM; GI50 (SF-539): 692 nM; GI50 (SK-MEL-28): 851 nM; GI50 (SK-MEL-5): 25100 nM; GI50 (SNB-19): 1410 nM; GI50 (SNB-75): 589 nM; GI50 (SR): 457 nM; GI50 (U251): 1410 nM; GI50 (UO-31): 1780 nM
5 | COc1ccc(Oc2ccccc2NC(=O)CNC(=O)c2cccc3ccccc23)cc1 [PCNA6] | 7.04 | 6.63 | 6.57 | < 4.70 | 1150 | 562 | 1120 | 912 | 724 | 1700 | 575 | 145 | 575 | 1350 | 550 | 4270 | 1290 | 851 | 195 | 427 | GI50 (OVCAR-3): 389 nM; GI50 (SF-539): 575 nM; GI50 (SK-MEL-28): 380 nM; GI50 (SK-MEL-5): 25100 nM; GI50 (SNB-19): 1230 nM; GI50 (SR): 166 nM; GI50 (U251): 1050 nM; GI50 (UO-31): 1480 nM
